Results published in patent US5516797A, “Immunosuppressive compounds” (Vertex Pharmaceuticals, Incorporated, priority 1994, dated 1996).

What was measured:
[1] = biological target: T1, FK-506 binding protein (FKBP) (Homo sapiens, UniProt P62942); test: Inhibition of PPIase (rotamase) enzyme activity of FKBP (apparent Ki); type: biochemical; conditions: substrate N-succinylAla-Ala-Pro-Phe-p-nitroanilide, chymotrypsin-coupled
Excerpt: The inhibition of the PPIase (rotamase) enzyme activity of the FKBP (apparent "Ki" values) can also be measured according to the methods described by either Harding, M. W. et al., Nature 341:758-760 (1989) or Siekierka, J. J. et al., Nature 341:755-757 (1989). The cis-trans isomerization of the proline-alanine peptide bond in a model substrate, N-succinylAla-Ala-Pro-Phe-p-nitroanilide, is monitored spectrophotometrically in a coupled assay with chymotrypsin, which releases 4-nitroanilide from the trans form of the substrate. Fischer, G. et al., Nature 337:476-478 (1989). The inhibitory effect of the addition of different concentrations of inhibitor on the extent of the reaction is determined, and analysis of the change in first order rate constant as a function of inhibitor concentration yields an estimate of the apparent Ki value.

[2] = biological target: T1, FK-506 binding protein (FKBP); test: Competitive binding to FKBP against [3H]dihydro-FK-506 (apparent Kd); conditions: competition with [3H]dihydro-FK-506
[3] = system: PBLs stimulated with LB human viral transformed B lymphoblastoid cells; test: MLR bioassay LB: inhibition of proliferation in mixed lymphocyte reaction; type: cell-based; conditions: Lymphoblastoid cell, pulsed on day 6, harvested 24 h later
Protocol: (§1) LB and JVMhuman viraltransformed B lymphoblastoid cell lines stimulated t
(§2) proliferate in a mixed lymphocyte reaction (MLR). The compounds are
(§3) evaluated on their ability to inhibit this proliferation.
(§4) Fresh peripheral blood lymphocytes (PBLs) from LeukoPak cells or whole blood from random normal blood donors (tested HIV-negative and hepatitis negative) are isolated and separated by density centrifugation over Histopaque 1077 (Sigma Chemical Co., St. Louis, Mo.). The murine CTLL cytotoxic T cell line and the human Jurkat T cell line are from ATCC (CTLL-2 ATCC TIB214, JURKAT CLONE E6-1 ATCC TIBl52). The human allogeneic B cell lines used for activation of the fresh PBLs are EBV-transformed lymphocytes from normal healthy adult donors with two completely different HLAhaplotypes. All cell lines were routinely tested for the presence of Mycolasma contamination using the GibcoMycotect test kit and are Mycolasma-free. Culture medium consksts of RPMI 1640 (Gibco, Grand Island, N.Y.) containing penicillin (50 U/ml) and streptomycin (50 μg/ml), L-glutamine 2 mM, 2 mercaptoethanol (5×10^-5), 10% heat-inactivated FCS and 10 mM HEPES.
(§5) All chemical stocks were dissolved in DMSO.
(§6) MLR Bioassays ("LB" and "JVM")
(§7) Antigen activated proliferation of PBLs in a primary mixed lymphocyte reaction was assessed in the presence or absence of different concentrations of tested compounds and control drugs. 5×10^4 fresh PBLs were stimulated with 5×10^3 of Mitomycin C treated-allogeneic EBV-transformed β-lymphoglastoid cells, IB and JVM, in a final volume of 200 μl per well in 96-well round-bottomed plates (Mishell, B. B. and S. M. Shiigi, Selected Methods in Cellular Immunology W. H. Freeman and Co., San Francisco, Calif. (1980); Nelson, P. A. et al., Transplantation 50:286 (1990)). Cultures were pulsed on day 6, harvested 24 h later and counted as in previous section.

[4] = system: PBLs stimulated with JVM human viral transformed B lymphoblastoid cells; test: MLR bioassay JVM: inhibition of proliferation in mixed lymphocyte reaction; type: cell-based; conditions: Lymphoblastoid cell, pulsed on day 6, harvested 24 h later
Protocol: as §1, §2, §3, §4, §5, §6, §7

[5] = system: human peripheral blood lymphocytes; test: Mitogenesis assay PMA: inhibition of proliferation of human PBLs; type: cell-based; conditions: Lymphocyte, PMA (10 ng/ml) plus ionomycin (250 ng/ml), 48 h incubation
Protocol: (§8) PMA and OKT3mitogens used to stimulate proliferation of human peripheral
(§9) blood lymphocytes (PBC). Compounds are evaluated on their ability to
as §4, §5
(§10) Mitogenesis Assays ("PMA" and "OKT3")
(§11) After 48 h incubation (37° C., 5% CO2), cells were pulsed with 1 μCi of ^3 H-thymidine, harvested 24 h later with a Tom Tek cell harvester, and counted in LKB β-scintillation counter.

[6] = system: human peripheral blood lymphocytes; test: Mitogenesis assay OKT3: inhibition of proliferation of human PBLs; type: cell-based; conditions: Lymphocyte, OKT3 (10^-4 dilution final), 48 h incubation
Protocol: as §8, §9, §4, §5, §10, §11

T1 sequence (P62942 whole entry): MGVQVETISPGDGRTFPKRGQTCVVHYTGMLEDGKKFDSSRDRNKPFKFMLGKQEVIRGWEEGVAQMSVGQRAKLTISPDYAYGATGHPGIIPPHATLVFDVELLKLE

Row | Ki [1] [µM] | Kd [2] [µM] | SMILES | IC50 [3] [µM] | IC50 [4] [µM] | IC50 [5] [µM] | IC50 [6] [µM]
1 | 25 | > 5 | O=C(C(=O)N1CCC[C@H]1C(=O)OCc1ccccc1)c1ccccc1 [Compound 2] |  |  |  | 
2 | 5 | 5 | COc1ccc(C(=O)C(=O)N2CCCC[C@H]2C(=O)OCc2ccccc2)cc1 [Compound 10] |  |  |  | 
3 | 2 | 0.6 | COc1cc(OC)cc(C(=O)C(=O)N2CCCC[C@H]2C(=O)OCc2ccccc2)c1 [Compound 11] |  |  |  | 
4 | 160 | > 75 | O=C(C(=O)N1CCCC[C@H]1C(=O)OCc1ccccc1)c1cccc([N+](=O)[O-])c1 [Compound 15] |  |  |  | 
5 |  | > 12 | O=C(C(=O)N1CCCC[C@H]1C(=O)OCc1ccccc1)c1ccco1 [Compound 20, (S)-Benzyl N-(2-furylglyoxyl)pipecolate] |  |  |  | 
6 | 600 | > 500 | COC(=O)C(=O)N1CCC[C@H]1C(=O)OC(C)(C)C [Compound 29] |  |  |  | 
7 | 45 | > 40 | COC(=O)C(=O)N1CCCC[C@H]1C(=O)OCCC1CCCCC1 [Compound 32] |  |  |  | 
8 |  | 12 | COC(=O)C(=O)N1CCCC[C@H]1C(=O)OCCCC1CCCCC1 [Compound 33] |  |  |  | 
9 | 70 | > 20 | COC(=O)C(=O)N1CCCC[C@H]1C(=O)OC/C(C)=C/[C@H]1CC[C@@H](O)CC1 [Compound 39] |  |  |  | 
10 | 400 | > 300 | CCC(=O)C(=O)N1CCC[C@H]1C(=O)OCc1ccccc1 [Compound 41] |  |  |  | 
11 | 1.5 | 1 | C[C@@H](OC(=O)[C@@H]1CCCCN1C(=O)C(=O)c1ccccc1)c1ccccc1 [Compound 51] |  |  |  | 
12 | 9 | 3 | CC(C)(C)/C=C/C(=O)C(=O)N1CCCC[C@H]1C(=O)OCc1ccccc1 [Compound 54] |  |  |  | 
13 | 0.5 |  | COc1cc(C(=O)C(=O)N2CCCC[C@H]2C(=O)OCCC=Cc2ccccc2)cc(OC)c1OC [Compound 87] | > 10 | > 10 | 7 | > 10
14 | 1.4 |  | CCCCOc1cccc(C(=O)C(=O)N2CCCC[C@H]2C(=O)OCCCc2ccccc2)c1 [Compound 92] | > 10 | > 10 | 9 | > 10
15 | 0.35 |  | O=C(Cc1ccccc1)C(=O)N1CCCC[C@H]1C(=O)OCCCCc1ccccc1 [Compound 95] | > 10 | > 10 | > 10 | > 10
16 | 0.44 |  | O=C(C(=O)N1CCCC[C@H]1C(=O)OCCCCc1ccccc1)C1CCOCC1 [Compound 101] | > 10 | > 10 | > 10 | > 10
17 | 1.6 |  | CCC(=O)C(=O)N1CCCC[C@H]1C(=O)OCCCCc1ccccc1 [Compound 105] | > 10 | > 10 | > 10 | > 10
18 | 0.11 |  | COc1cc(C(=O)C(=O)N2CCCC[C@H]2C(=O)OCCCn2cnc3ccccc32)cc(OC)c1OC [Compound 106] | > 10 | > 10 | 7 | > 10
19 | 0.13 |  | COc1cc(C(=O)C(=O)N2CCCC[C@H]2C(=O)OCCCn2cnc3cncnc32)cc(OC)c1OC [Compound 107] | > 10 | > 10 | 6.5 | > 10

The remaining lines, values behind:

Row | SMILES | Ki [1] [µM] | Kd [2] [µM] | IC50 [3] [µM] | IC50 [4] [µM] | IC50 [5] [µM] | IC50 [6] [µM]
20 | O=C(C(=O)N1CCCC[C@H]1C(=O)Oc1ccc2ccccc2c1)c1ccccc1 [Compound 6] | 7 | 1 |  |  |  | 
21 | COc1ccccc1C(=O)C(=O)N1CCCC[C@H]1C(=O)OCc1ccccc1 [Compound 8] | 17 | > 75 |  |  |  | 
22 | COc1cccc(OC)c1C(=O)C(=O)N1CCCC[C@H]1C(=O)OCc1ccccc1 [Compound 12] | 50 | 25 |  |  |  | 
23 | O=C(C(=O)N1CCCC[C@H]1C(=O)OCc1ccccc1)c1ccc(F)cc1 [Compound 14] | 4 | 10 |  |  |  | 
24 | O=C(C(=O)N1CCCC[C@H]1C(=O)OCc1ccccc1)c1ccccn1 [Compound 17] | 130 | > 1000 |  |  |  | 
25 | O=C(C(=O)N1CCCC[C@H]1C(=O)OCc1ccccc1)c1cccc[n+]1[O-] [Compound 18] | > 500 | 10 |  |  |  | 
26 | CC(C)(C)OC(=O)[C@@H]1CCCN1C(=O)C(=O)c1ccco1 [Compound 19] | 200 | > 500 |  |  |  | 
27 | O=C(C(=O)N1CCCC[C@H]1C(=O)OCc1ccccc1)c1c[nH]c2ccccc12 [Compound 21] | 25 | 20 |  |  |  | 
28 | O=C(Cc1ccccc1[N+](=O)[O-])C(=O)N1CCC[C@H]1C(=O)OCc1ccccc1 [Compound 27] | 26 | > 25 |  |  |  | 
29 | C=CCOC(=O)[C@@H]1CCCCN1C(=O)C(=O)OC [Compound 30] | 190 | > 25 |  |  |  | 
30 | COC(=O)C(=O)N1CCCC[C@H]1C(=O)OCc1ccccc1 [Compound 31] |  | > 50 |  |  |  | 
31 | COC(=O)C(=O)N1CCCC[C@H]1C(=O)OC/C(C)=C/c1ccc(OC)cc1 [Compound 36] | 40 | > 30 |  |  |  | 
32 | COc1cccc(C(=O)C(=O)N2CCC[C@H]2C(=O)OCc2ccccc2)c1 [Compound 42] | 5 | 80 |  |  |  | 
33 | O=C(OCc1ccccc1)[C@@H]1CCCCN1C(=O)C(=O)C1(O)CCCCO1 (some centres unmarked) [Compound 50] | 12 | 0.35 |  |  |  | 
34 | COc1cc(C(=O)C(=O)N2CCCC[C@H]2C(=O)OCCCc2ccccc2)cc(OC)c1OC [Compound 83] | 0.11 |  | 8.5 | 7.5 | 5.5 | 5.5
35 | COc1cc(C(=O)C(=O)N2CCCC[C@H]2C(=O)OCC=CCc2ccccc2)cc(OC)c1OC [Compound 86] | 0.8 |  | > 10 | > 10 | 9 | > 10
36 | O=C(C(=O)N1CCCC[C@H]1C(=O)OCCCc1ccccc1)C1=CCCCC1 [Compound 89] | 0.78 |  | > 10 | > 10 | 8 | > 10
37 | O=C(OCCCc1ccccc1)[C@@H]1CCCCN1C(=O)C(=O)C1(F)CCCCC1 [Compound 91] | 0.54 |  | > 10 | > 10 | > 10 | > 10
38 | CC(C)(C)c1ccc(C(=O)C(=O)N2CCCC[C@H]2C(=O)OCCCCc2ccccc2)cc1 [Compound 97] | 0.6 |  | > 10 | > 10 | > 10 | > 10
39 | O=C(CC1CCCCC1)C(=O)N1CCCC[C@H]1C(=O)OCCCCc1ccccc1 [Compound 99] | 0.12 |  | > 10 | > 10 | > 10 | > 10
40 | O=C(C(=O)N1CCCC[C@H]1C(=O)OCCCCc1ccccc1)c1ccc2c(c1)OCO2 [Compound 100] | 0.25 |  | > 10 | > 10 | > 10 | > 10
41 | COc1ccc(C(=O)C(=O)N2CCCC[C@H]2C(=O)OCCCCc2ccccc2)cc1C1CCCCC1 [Compound 102] | 14 |  | 10 | 10 | > 10 | > 10
42 | COc1ccc(COCc2coc(C(=O)C(=O)N3CCCC[C@H]3C(=O)OCCCCc3ccccc3)c2)cc1 [Compound 103] | 0.7 |  | 10 | > 10 | 7 | 10
43 | CC(C)(C)C(=O)C(=O)N1CCCC[C@H]1C(=O)OCCCCc1ccccc1 [Compound 104] | 0.18 |  | > 10 | > 10 | 4 | > 10
